Assay results taken from patent US20090156662A1, “Fat Absorption Inhibitor” (ITO EN, LTD., priority 2006, published 2009).

Experiments:
[1] = Micellar cholesterol release: cholesterol remaining in bile acid micelles after incubation with test substance, filtration and GC; conditions: for micellar cholesterol concentration: Embodiment 4, same method as Embodiment 1, FIG. 5
Protocol: Prepared were micelles composed of 0.5 mM of cholesterol, 6.6 mM of sodium taurocholate, 0.6 mM of phosphatidyl choline of egg yolk origin, 132 mM of sodium chloride (NaCl) and 15 mM of sodium phosphate (NaH2PO4.2H2O). The micelles were incubated for 24 hours at 37° C. for stabilizing the micelles. Then 0.1 mL solution of each theaflavin (manufactured by Nagara Science Co.) was added to each of 3 mL portions of the micelles in such a manner that their concentrations were to be respectively 0 μg, 200 μg and 800 μg to 1 mL of the micelles, which were then incubated at 37° C. for 1 hour. After that, each of solutions was filtered through a 220 nm filter (manufactured by Whatman Co.) to obtain a clear micelle solution. Cholesterol was extracted from each micelle solution obtained, and the concentration of cholesterol remained in the micelles was measured using a gas chromatograph (manufactured by Shimadzu Corp.) using 5α-cholestane as an internal standard.
(§1) Prepared were micelles composed of 0.5 mM of cholesterol (manufactured by Sigma Co.), 6.6 mM of sodium taurocholate (manufactured by Nacalai Tesque Inc.), 0.6 mM of phosphatidyl choline from egg yolk (manufactured by Sigma Co.), 132 mM of sodium chloride (NaCl, manufactured by Nacalai Tesque Inc.) and 15 mM of sodium phosphate (NaH2PO4.2H2O, manufactured by Nacalai Tesque Inc.). The micelles were incubated at 37° C. for 24 hours for stabilization. Then 0.1 mL solution of the theaflavins formulation (manufactured by Funakoshi Corp.) was added to each of 3 mL portions of the micelles in such a manner that their concentrations were respectively 0 μg, 200 μg and 800 μg to 1 mL micelles, and the solutions were incubated at 37° C. for 1 hour (n=3). Each solution was filtered through a 220 nm filter to obtain a clear solution. Cholesterol was extracted from each micelle solution, and cholesterol remained in the micelle was measured with a gas chromatograph (manufactured by Shimadzu Corp.) using 5α-cholestane as an internal standard.
Next, micelles for test were prepared (pH 6.8) at a composition of 0.5 mM of cholesterol, 6.6 mM of sodium taurocholate, 0.6 mM of egg yolk phosphatidyl choline, 132 mM of sodium chloride (NaCl) and sodium phosphate (NaH2PO4.2H2O), and the micelles were incubated at 37° C. for 24 hours for stabilization. […]

[2] = Concentration of bile acid in the micelle solution by the enzymatic method (Eaton et al.); conditions: Embodiment 3; FIG. 4
Protocol: as §1
Moreover, the concentration of bile acid was measured by the enzymatic method in accordance with the process of Eaton et al (Eaton, D. L. et al., Proc. Soc. Exp. Biol. Med. 1976, January; 151(1): 198-202).

[3] = Micellar cholesterol release: cholesterol remaining in bile acid micelles after incubation with test substance, filtration and GC; conditions: for concentration of cholesterol in the micelles / concentration of micellar cholesterol relative to the case using theaflavin or theaflavin digallate: Embodiment 1; for concentration of cholesterol in the micelles: amount of addition raised up to 0.5 mM, incubated 37° C. 1 hour, FIG. 1; for concentration of micellar cholesterol relative to the case using theaflavin or theaflavin digallate: at an amount of 0.5 mM addition

| SMILES | micellar cholesterol concentration [1] | concentration of cholesterol in the micelles [3] | concentration of micellar cholesterol relative to the case using theaflavin or theaflavin digallate [3] | also measured |
| --- | --- | --- | --- | --- |
| O=C(O[C@@H]1Cc2c(O)cc(O)cc2O[C@@H]1c1ccc(O)c(O)c1)c1cc(O)c(O)c(O)c1 [epicatechin gallate] | little effect | – | – | – |
| O=C(O[C@@H]1Cc2c(O)cc(O)cc2O[C@@H]1c1cc(O)c(O)c(O)c1)c1cc(O)c(O)c(O)c1 [epigallocatechin gallate] | decreased | – | – | concentration of cholesterol in the micelles ([1]; Embodiment 3, 0, 200 and 800 μg to 1 mL micelles, 37° C. 1 hour, n=3, FIG. 3): decreased; effect on the concentration of bile acid [2]: did not show any effect |
| O=C(O[C@@H]1Cc2c(O)cc(O)cc2O[C@@H]1c1cc(O)c(=O)c2c(O)c(O)cc([C@H]3Oc4cc(O)cc(O)c4C[C@H]3OC(=O)c3cc(O)c(O)c(O)c3)c2c1)c1cc(O)c(O)c(O)c1 [theaflavin-3,3′-digallate] | little effect | did not change | – | micelle formation inhibitory effect ([3]; Embodiment 2, amount of addition increased up to 2 mmol/L, FIG. 2): excellent micelle formation inhibitory effect; cholesterol decreasing effect ([3]; Embodiment 2, amount of addition up to 1 mmol/L, FIG. 2): relatively gentle |
| O=C(O[C@@H]1Cc2c(O)cc(O)cc2O[C@@H]1c1cc(=O)c(O)c2c(O)c(O)cc([C@H]3Oc4cc(O)cc(O)c4C[C@H]3O)c2c1)c1cc(O)c(O)c(O)c1 [theaflavin-3-monogallate] | – | decreased in a manner dependent on the amount of addition | decreased about twice | – |
| O=C(O[C@@H]1Cc2c(O)cc(O)cc2O[C@@H]1c1cc(O)c(O)c2c(=O)c(O)cc([C@H]3Oc4cc(O)cc(O)c4C[C@H]3O)cc12)c1cc(O)c(O)c(O)c1 [theaflavin-3′-monogallate] | – | decreased in a manner dependent on the amount of addition | decreased about twice | – |
| O=c1c(O)cc([C@H]2Oc3cc(O)cc(O)c3C[C@H]2O)cc2c([C@H]3Oc4cc(O)cc(O)c4C[C@H]3O)cc(O)c(O)c12 [theaflavin] | – | did not change | – | – |
